According to the supplement of paper PMC10307832:

Tests used:
Assay in all cases: relative viability (nuclei count vs DMSO), 5 days (fraction); higher = more cells survive
OSI-027 + Crizotinib = compound: COc1cccc2cc(-c3nc([C@H]4CC[C@H](C(=O)O)CC4)n4ncnc(N)c34)[nH]c12 [OSI-027] + C[C@@H](Oc1cc(-c2cnn(C3CCNCC3)c2)cnc1N)c1c(Cl)ccc(F)c1Cl [Crizotinib] (partner 1 µM)
Method in brief: (§1)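 Relative viability is defined as nuclei in treated wells over nuclei in vehicle wells. Duplicate plates were run and medians reported. Lung cancer cell lines in 1536-well plates were dosed by pin tool one day after seeding, with one drug or with a fixed anchor-drug dose plus five library-drug doses (not always all listed) in √10 steps, and nuclei were counted after 5 days.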

Alpelisib + Bortezomib = compound: Cc1nc(NC(=O)N2CCC[C@H]2C(N)=O)sc1-c1ccnc(C(C)(C)C(F)(F)F)c1 [Alpelisib] + CC(C)C[C@H](NC(=O)[C@H](Cc1ccccc1)NC(=O)c1cnccn1)B(O)O [Bortezomib] (partner 0.002 µM)
Method in brief: as §1

Vemurafenib + Crizotinib = compound: CCCS(=O)(=O)Nc1ccc(F)c(C(=O)c2c[nH]c3ncc(-c4ccc(Cl)cc4)cc23)c1F [Vemurafenib] + C[C@@H](Oc1cc(-c2cnn(C3CCNCC3)c2)cnc1N)c1c(Cl)ccc(F)c1Cl [Crizotinib] (partner 1 µM)
Method in brief: as §1

Alpelisib + Tozasertib = compound: Cc1nc(NC(=O)N2CCC[C@H]2C(N)=O)sc1-c1ccnc(C(C)(C)C(F)(F)F)c1 [Alpelisib] + Cc1cc(Nc2cc(N3CCN(C)CC3)nc(Sc3ccc(NC(=O)C4CC4)cc3)n2)n[nH]1 [Tozasertib] (partner 0.1 µM)
Method in brief: as §1

Row | Cell Line | relative viability (OSI-027 + Crizotinib; first compound 0.01 µM) | relative viability (OSI-027 + Crizotinib; first compound 0.03162 µM) | relative viability (OSI-027 + Crizotinib; first compound 0.1 µM) | relative viability (OSI-027 + Crizotinib; first compound 0.3162 µM) | relative viability (OSI-027 + Crizotinib; first compound 1 µM) | relative viability (Alpelisib + Bortezomib; first compound 0.04 µM) | relative viability (Alpelisib + Bortezomib; first compound 0.1265 µM) | relative viability (Alpelisib + Bortezomib; first compound 0.4 µM) | relative viability (Alpelisib + Bortezomib; first compound 1.265 µM) | relative viability (Alpelisib + Bortezomib; first compound 4 µM) | relative viability (Vemurafenib + Crizotinib; first compound 0.03162 µM) | relative viability (Vemurafenib + Crizotinib; first compound 0.1 µM) | relative viability (Vemurafenib + Crizotinib; first compound 0.3162 µM) | relative viability (Vemurafenib + Crizotinib; first compound 1 µM) | relative viability (Alpelisib + Tozasertib; first compound 0.04 µM) | relative viability (Alpelisib + Tozasertib; first compound 0.1265 µM) | relative viability (Alpelisib + Tozasertib; first compound 0.4 µM) | relative viability (Alpelisib + Tozasertib; first compound 1.265 µM) | relative viability (Alpelisib + Tozasertib; first compound 4 µM)
1 | HOP-62 | 1.02 | 0.922 | 0.999 | 1.36 | 0.428 | 0.749 | 0.397 | 0.986 | 0.811 | 0.807 | 0.905 | 0.987 | 0.94 | 0.862 | 0.328 | 0.374 | 0.465 | 0.322 | 0.292
2 | NCI-H520 | 0.813 | 0.848 | 0.876 | 0.424 | 0.286 | 0.59 | 0.687 | 0.553 | 0.623 | 0.319 | 0.659 | 0.755 | 0.765 | 0.703 | 0.449 | 0.461 | 0.462 | 0.351 | 0.309
3 | COR-L23 | 0.688 | 0.549 | 0.674 | 0.985 | 0.4 | 0.945 | 0.976 | 1.13 | 0.798 | 0.802 | 0.6 | 0.524 | 0.597 | 0.59 | 0.205 | 0.208 | 0.218 | 0.19 | 0.13
4 | H3255 | 0.842 | 0.838 | 0.76 | 0.886 | 0.587 | 0.852 | 0.648 | 1.2 | 0.48 | 0.444 | 0.883 | – | 0.865 | 0.808 | 0.702 | 0.683 | 0.767 | 0.431 | 0.438
5 | NCI-H1993 | 0.783 | 0.77 | 0.678 | 0.565 | 0.56 | 1.09 | 1.03 | 1.02 | 0.791 | 0.489 | 0.906 | – | 0.935 | 0.818 | 0.621 | 0.505 | 0.542 | 0.511 | 0.515
6 | SW 1573 | 0.855 | 0.832 | 0.687 | 0.655 | 0.566 | 0.898 | 0.947 | 1 | 0.72 | 0.651 | 0.628 | 0.941 | 1.01 | 0.722 | 0.172 | 0.149 | 0.175 | 0.151 | 0.166
7 | NCI-H2085 | 0.807 | 0.852 | 0.825 | 0.812 | 0.586 | 0.982 | 1.08 | 0.816 | 0.927 | 0.842 | 0.875 | 0.841 | 0.822 | 0.783 | 0.825 | 0.718 | 0.907 | 0.762 | 0.746
8 | EPLC-272H | 1.05 | 0.872 | 0.944 | 0.697 | 0.787 | 0.902 | 0.911 | 1.13 | 0.904 | 0.622 | 0.822 | 0.809 | 0.89 | 0.841 | 0.256 | 0.326 | 0.513 | 0.203 | 0.173
9 | HARA | 1.07 | 0.85 | 0.999 | 1.09 | 0.407 | 0.976 | 1.09 | 1.34 | 1.01 | 0.766 | 1.04 | – | 1.09 | 1.07 | 0.109 | 0.074 | 0.107 | 0.0657 | 0.0666
10 | LU99A | 0.522 | 0.522 | 0.46 | 0.313 | 0.208 | 1.07 | 1.12 | 1.14 | 0.874 | 0.614 | 0.531 | 0.489 | 0.516 | 0.526 | 0.283 | 0.26 | 0.308 | 0.259 | 0.23
11 | NCI-H2087 | 0.991 | 0.971 | 0.753 | 0.866 | 0.53 | 0.651 | 0.78 | 0.893 | 0.685 | 0.47 | 0.844 | 1 | – | 0.79 | 0.256 | 0.294 | 0.305 | 0.218 | 0.167
12 | NCI-H1734 | 0.618 | 0.509 | 0.731 | 0.599 | 0.394 | 0.896 | 0.814 | 0.943 | 0.623 | 0.518 | 0.665 | 0.684 | 0.579 | 0.516 | 0.289 | – | 0.299 | 0.224 | 0.205
13 | HCC-44 | 0.819 | 0.794 | 0.817 | 0.737 | 0.343 | 0.882 | 0.873 | 0.937 | 0.788 | 0.683 | 0.749 | 0.867 | 0.809 | 0.813 | 0.883 | 0.935 | 1.11 | 0.376 | 0.607
14 | PC-3 [JPC-3] | 0.999 | 0.943 | 1.02 | 0.984 | 0.551 | 0.873 | 0.901 | 0.766 | 0.768 | 0.66 | 0.91 | – | 1.01 | 1.01 | 0.898 | 0.873 | 0.968 | 0.84 | 0.806
15 | ABC-1 | 1.23 | 0.881 | 1.1 | 0.957 | 0.47 | 0.312 | 0.295 | 0.268 | 0.363 | 0.266 | 1.01 | 1.21 | 1.2 | 0.997 | 0.175 | 0.157 | 0.155 | 0.195 | 0.188
16 | NCI-H1651 | 0.878 | 0.801 | 0.841 | 0.816 | 0.635 | 0.913 | 0.921 | 0.913 | 0.886 | 0.745 | 0.875 | 0.869 | 0.806 | 0.795 | 0.636 | 0.651 | 0.708 | 0.653 | 0.607
17 | NCI-H460 | 0.888 | 0.714 | 1.06 | 0.759 | 0.184 | 1 | 0.939 | 1.13 | 0.646 | 0.366 | 0.808 | 0.809 | 0.692 | 0.942 | 0.153 | 0.44 | 0.563 | 0.181 | 0.241
